Test results taken from PubChem BioAssay AID192 (DTP/NCI, 2004).
Where “and” joins values, the source holds several entries; their conditions need not be identical. Equal values may be shown once. Toxic doses and inconclusive results are not listed.

Test system: BDF1 mice, B16 melanoma ip, median survival T/C
Experiment: NCI In Vivo Anticancer Drug Screen. Data for tumor model B16 Melanoma (intraperitoneal) in B6D2F1 (BDF1) mice
Conditions: endpoint: median survival time, higher = longer survival
Procedure, shortened: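 Tumor-bearing mice received test compound or vehicle. Survival or tumor size was then measured in both groups. The treated-group figure was divided by the control-group figure.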

[1] = dose: 25.0 mg/kg/injection, schedule: Q01DX009 (ip), vehicle: saline with Tween-80
[2] = dose: 50.0 mg/kg/injection, schedule: Q01DX009 (ip), vehicle: saline with Tween-80
[3] = dose: 100.0 mg/kg/injection, schedule: Q01DX009 (ip), vehicle: Klucel (hydroxypropylcellulose) (HPC)
[4] = dose: 100.0 mg/kg/injection, schedule: Q01DX009 (ip), vehicle: saline with Tween-80
[5] = dose: 200.0 mg/kg/injection, schedule: Q01DX009 (ip), vehicle: saline with Tween-80
[6] = dose: 12.5 mg/kg/injection, schedule: Q01DX009 (ip), vehicle: Klucel (hydroxypropylcellulose) (HPC)
[7] = dose: 50.0 mg/kg/injection, schedule: Q01DX009 (ip), vehicle: Klucel (hydroxypropylcellulose) (HPC)
[8] = dose: 200.0 mg/kg/injection, schedule: Q01DX009 (ip), vehicle: Klucel (hydroxypropylcellulose) (HPC)
[9] = dose: 50.0 mg/kg/injection, schedule: Q01DX009 (ip), vehicle: saline
[10] = dose: 400.0 mg/kg/injection, schedule: Q01DX009 (ip), vehicle: Klucel (hydroxypropylcellulose) (HPC)
[11] = dose: 100.0 mg/kg/injection, schedule: Q01DX009 (ip), vehicle: saline
[12] = dose: 200.0 mg/kg/injection, schedule: Q01DX009 (ip), vehicle: saline
[13] = dose: 25.0 mg/kg/injection, schedule: Q01DX009 (ip), vehicle: Klucel (hydroxypropylcellulose) (HPC)
[14] = dose: 2.0 mg/kg/injection, schedule: Q01DX009 (ip), vehicle: saline
[15] = dose: 6.25 mg/kg/injection, schedule: Q01DX009 (ip), vehicle: saline with Tween-80
[16] = dose: 12.5 mg/kg/injection, schedule: Q01DX009 (ip), vehicle: saline with Tween-80

## COC1C(O)C(C)OC(OC2C(Oc3cccc4c(O)c5c(=O)oc6ccc(C)c7c(=O)oc(c34)c5c67)OC(C)C(O)C2O)C1O (centres undefined)
dose: 16.0 mg/kg/injection, schedule: Q04DX003 (ip), vehicle: saline with Tween-80
  T/C: 107 % of control
[1]
  T/C: 183 % of control
dose: 32.0 mg/kg/injection, schedule: Q04DX003 (ip), vehicle: saline with Tween-80
  T/C: 101 % of control
dose: 50.0 mg/kg/injection, schedule: Q01DX009 (ip), vehicle: carboxymethylcellulose (CMC)
  T/C: 179 % of control
[2]
  T/C: 199 % of control
dose: 64.0 mg/kg/injection, schedule: Q04DX003 (ip), vehicle: saline with Tween-80
  T/C: 122 % of control
[3]
  T/C: 119 % of control
dose: 100.0 mg/kg/injection, schedule: Q01DX009 (ip), vehicle: carboxymethylcellulose (CMC)
  T/C: 206 % of control
[4]
  T/C: 185 % of control
dose: 128.0 mg/kg/injection, schedule: Q04DX003 (ip), vehicle: saline with Tween-80
  T/C: 119 % of control

## COc1nc(NC(C)C)nc(NC(C)C)n1
[2]
  T/C: 102 % of control
dose: 66.0 mg/kg/injection, schedule: Q01DX009 (ip), vehicle: saline with Tween-80
  T/C: 93 % of control
[4]
  T/C: 86 % of control
dose: 150.0 mg/kg/injection, schedule: Q01DX009 (ip), vehicle: saline with Tween-80
  T/C: 97 % of control
[5]
  T/C: 105 % of control

## CC(C)NNC(=O)c1ccccc1N
[6]
  T/C: 100 % of control
[7]
  T/C: 87 % of control
[3]
  T/C: 95 % of control
[8]
  T/C: 97 % of control

## O=S(=O)(O)O.[Ga]
dose: 12.5 mg/kg/injection, schedule: Q01DX009 (ip), vehicle: saline
  T/C: 101 % of control
dose: 25.0 mg/kg/injection, schedule: Q01DX009 (ip), vehicle: saline
  T/C: 94 % of control
[9]
  T/C: 91 % of control

## CCOC(=O)CC(C)(N)NC(N)=O (centres undefined)
[4]
  T/C: 92 % of control
[5]
  T/C: 95 % of control
dose: 400.0 mg/kg/injection, schedule: Q01DX009 (ip), vehicle: saline with Tween-80
  T/C: 90 % of control

## Cc1ccc(NC(=O)c2cccc(C(=O)Nc3ccc(C)c(Cl)c3)c2)cc1Cl
[3]
  T/C: 97 % of control
[8]
  T/C: 105 % of control
[10]
  T/C: 97 % of control

## Cc1nccc(=O)[nH]1
[11]
  T/C: 90 % of control
dose: 100.0 mg/kg/injection, schedule: Q04DX003 (ip), vehicle: saline
  T/C: 117 % of control
[12]
  T/C: 107 % of control
dose: 200.0 mg/kg/injection, schedule: Q04DX003 (ip), vehicle: saline
  T/C: 100 % of control

## C/C(=N\O)c1ccccn1
dose: 50.0 mg/kg/injection, schedule: Q01DX009 (ip), vehicle: other
  T/C: 110 % of control
dose: 100.0 mg/kg/injection, schedule: Q01DX009 (ip), vehicle: other
  T/C: 111 % of control
dose: 200.0 mg/kg/injection, schedule: Q01DX009 (ip), vehicle: other
  T/C: 97 % of control
dose: 400.0 mg/kg/injection, schedule: Q01DX009 (ip), vehicle: other
  T/C: 90 % of control

## CCOc1ccc(N2C(=O)CSC2=S)cc1
[6]
  T/C: 103 % of control
[13]
  T/C: 91 % of control
[7]
  T/C: 95 % of control

## OCCN1CCN(CC/C=C2/c3ccccc3Sc3ccc(C(F)(F)F)cc32)CC1
dose: 0.25 mg/kg/injection, schedule: Q01DX009 (ip), vehicle: saline
  T/C: 97 % of control
dose: 0.5 mg/kg/injection, schedule: Q01DX009 (ip), vehicle: saline
  T/C: 106 % of control
dose: 1.0 mg/kg/injection, schedule: Q01DX009 (ip), vehicle: saline
  T/C: 111 % of control
[14]
  T/C: 105 % of control

## COC1C(O)C(C)OC(OC2CC(O)C3(C)C(CCC4C3CCC3(C)C(C5=CC(=O)OC5)CCC43O)C2)C1O (centres undefined) (tested in a mixture with another compound)
[14]
  T/C: 99 % of control
dose: 4.0 mg/kg/injection, schedule: Q01DX009 (ip), vehicle: saline
  T/C: 97 % of control
dose: 8.0 mg/kg/injection, schedule: Q01DX009 (ip), vehicle: saline
  T/C: 97 % of control
dose: 16.0 mg/kg/injection, schedule: Q01DX009 (ip), vehicle: saline
  T/C: 94 % of control
dose: 32.0 mg/kg/injection, schedule: Q01DX009 (ip), vehicle: saline
  T/C: 94 % of control
dose: 64.0 mg/kg/injection, schedule: Q01DX009 (ip), vehicle: saline
  T/C: 88 % of control

## CNC(=O)n1c(N)nc(-c2ccccc2)c1-c1ccccc1
[15]
  T/C: 98 % of control
[16]
  T/C: 98 % of control
[1]
  T/C: 106 % of control
[2]
  T/C: 107 % of control

## CCC(=O)c1ccccc1NC(C)=O
[3]
  T/C: 102 % of control
[8]
  T/C: 98 % of control
[10]
  T/C: 97 % of control

## CNC(=S)C(=S)NC
[15]
  T/C: 102 % of control
[16]
  T/C: 120 % of control
[1]
  T/C: 107 % of control

## CCOc1cc[n+]([O-])cc1
[9]
  T/C: 103 % of control
[11]
  T/C: 104 % of control
[12]
  T/C: 102 % of control

## COc1cc(C=O)cc(O)c1O
[11]
  T/C: 95 % of control
[12]
  T/C: 111 % of control

## O=C1C=CC(=O)N1c1ccc2c(c1)oc(=O)c1ccccc12
[7]
  T/C: 87 % of control

## O=C(O)c1ccc(S(=O)(=O)O)cc1C(=O)O
[9]
  T/C: 92 % of control
[11]
  T/C: 96 % of control
[12]
  T/C: 98 % of control

## Cc1c(Cl)cccc1NC(=O)COc1ccc(Cl)cc1
[16]
  T/C: 96 % of control
[1]
  T/C: 90 % of control
[2]
  T/C: 88 % of control

## Cc1cc(NS(=O)(=O)c2ccc(N=Nc3cc(N=Nc4ccc(S(=O)(=O)Nc5cc(C)nc(C)n5)cc4)c4c(NC(=O)C(Cl)Cl)cccc4c3OC(=O)C(Cl)Cl)cc2)nc(C)n1 (tested in a mixture with another compound)
dose: 12.5 mg/kg/injection, schedule: Q01DX009 (ip), vehicle: suspension in saline
  T/C: 98 % of control
dose: 25.0 mg/kg/injection, schedule: Q01DX009 (ip), vehicle: suspension in saline
  T/C: 95 % of control
dose: 50.0 mg/kg/injection, schedule: Q01DX009 (ip), vehicle: suspension in saline
  T/C: 97 % of control
dose: 100.0 mg/kg/injection, schedule: Q01DX009 (ip), vehicle: suspension in saline
  T/C: 95 % of control
dose: 200.0 mg/kg/injection, schedule: Q01DX009 (ip), vehicle: suspension in saline
  T/C: 93 % of control
dose: 400.0 mg/kg/injection, schedule: Q01DX009 (ip), vehicle: suspension in saline
  T/C: 87 % of control

## S=C([S][Sn]([c]1ccccc1)([c]1ccccc1)[c]1ccccc1)N1CCCCC1
dose: 3.12 mg/kg/injection, schedule: Q01DX009 (ip), vehicle: saline with Tween-80
  T/C: 100 % of control
[15]
  T/C: 107 % of control
[16]
  T/C: 103 % of control
[1]
  T/C: 99 % of control

## Cc1ccc(NC(=O)COc2ccc(Cl)cc2)cc1Cl
dose: 3.13 mg/kg/injection, schedule: Q01DX009 (ip), vehicle: saline with Tween-80
  T/C: 101 % of control
[15]
  T/C: 106 % of control
[16]
  T/C: 93 % of control and 101 % of control
[1]
  T/C: 87 % of control
[2]
  T/C: 96 % of control

## CCC(=O)/C=C/C1=C(C)CCCC1(C)C
[2]
  T/C: 104 % of control
[4]
  T/C: 103 % of control
[5]
  T/C: 92 % of control

## CNC(=O)Nc1ccc(C(=O)NC(C)C)cc1
[13]
  T/C: 98 % of control
[7]
  T/C: 97 % of control
[3]
  T/C: 96 % of control
[8]
  T/C: 100 % of control
[10]
  T/C: 88 % of control

## C[n+]1c2ccccc2cc2ccccc21
dose: 1.56 mg/kg/injection, schedule: Q01DX009 (ip), vehicle: saline with Tween-80
  T/C: 97 % of control
[15]
  T/C: 90 % of control and 94 % of control

## COc1cc2ccc3c[n+](C)ccc3c2cc1OC
dose: 12.5 mg/kg/injection, schedule: Q01DX009 (ip), vehicle: water
  T/C: 101 % of control
dose: 25.0 mg/kg/injection, schedule: Q01DX009 (ip), vehicle: water
  T/C: 106 % of control
dose: 50.0 mg/kg/injection, schedule: Q01DX009 (ip), vehicle: water
  T/C: 95 % of control
dose: 100.0 mg/kg/injection, schedule: Q01DX009 (ip), vehicle: water
  T/C: 101 % of control

## ClCC[N-]CC[N-]CCCl.ClCC[N-]CC[N-]CCCl.[O-][Cl+3]([O-])([O-])O.[Zn+2]
dose: 2.5 mg/kg/injection, schedule: Q01DX009 (ip), vehicle: Klucel (hydroxypropylcellulose) (HPC)
  T/C: 106 % of control
dose: 5.0 mg/kg/injection, schedule: Q01DX009 (ip), vehicle: Klucel (hydroxypropylcellulose) (HPC)
  T/C: 92 % of control
dose: 10.0 mg/kg/injection, schedule: Q01DX009 (ip), vehicle: Klucel (hydroxypropylcellulose) (HPC)
  T/C: 101 % of control
dose: 20.0 mg/kg/injection, schedule: Q01DX009 (ip), vehicle: Klucel (hydroxypropylcellulose) (HPC)
  T/C: 104 % of control
